# Source: US20240277715A1, “COMBINATION THERAPIES COMPRISING A METTL3 INHIBITOR AND A FURTHER ANTICANCER AGENT” (Storm Therapeutics Limited, priority 2021, published 2024)
# Like-named read-outs stand apart in the source and are kept apart here.
# Tests used:
# Kasumi1 AML cell line = experiment: AML cell viability, CellTiter-Glo combination matrix, Kasumi1; type: cell-based; details: for IC50: Homo sapiens, Kasumi 1, Kasumi1 cells
# Protocol: (§1) The sensitivity of AML cell lines to combinations of METTL3 inhibitor and standards of care was determined as described. Dose response curves of venetoclax were determined either alone or in the presence of different concentrations of METTL3 inhibitor that are known to be active in cells.
# (§2) Synergistic interactions occur when the IC50 value decreases in the presence of METTL3 inhibitor. […] Antagonistic interactions occur when the IC50 value increases in the presence of METTL3 inhibitor.
# (§3) 24 h before cell treatment, homogenize, stain with Trypan blue and count viable cells using CellOMeter Auto T4. Dilute cells in media at 400 000 cells/ml to ensure an exponential growth the day after.
# (§4) On treatment day, homogenize, stain with Trypan blue and count viable cells using CellOMeter Auto T4. Dilute to the proper cell seeding density according to Table 6 in cell media.
# (§5) • Dispense drug (see Table 7) and METTL3 inhibitor in semi-log dose-response matrix and DMSO in 384-well plates using D300e Nanodispenser (Tecan). • 6× compound solution preparation: add 40 μL of cell medium in compound-containing plates and homogenize using the ViaFlo device (Integra) • Dispense 30 μl of cell suspension per well in three replicate 384-well white Ultra-Low-Attachment plates (Sbio) using ViaFlow device (Integra) • Transfer 6 μL of the 6× compound solution in each 30 μL cell suspension-containing plate. • Incubate at 37° C. 5% CO2 for 3 to 5 days.
# (§6) • Add 35 μL CellTiter-Glo (Promega) in wells (vol/vol) using ViaFlo device (Integra). • Incubate at RT 10 min in the dark, with agitation the first minute, and read luminescence on the Ensight device (Perkin Elmer).
# (§7) Raw data were converted to % viability by normalization to DMSO controls. IC50 determination was performed using GraphPad Prism and fitting curves to the standard nonlinear regression four parameter equation (Y=Bottom+(Top-Bottom)/(1+(IC50/X)^HillSlope)) least squares method, and synergy was assessed by comparison of IC50 values of the standard of care in the presence or absence of different concentrations of METTL3 inhibitor (see FIGS. 12 to 19).
# MOLM13 AML cell line = experiment: AML cell viability, CellTiter-Glo combination matrix, MOLM13; type: cell-based; details: for interaction with venetoclax: MOLM13 AML cell line
# Protocol: as §1, §2, §3, §4, §5, §6, §7
# [1] = system: FLT3-mutant MOLM-14 AML cell line; experiment: AML cell viability, CellTiter-Glo combination matrix, MOLM-14; type: cell-based
# Protocol: as §3, §4, §5, §6
# Raw data were converted to % viability by normalization to DMSO controls.
# [2] = system: SKOV3 human ovarian cancer cells; experiment: Tumour killing assay (TKA), SKOV3 spheroid / PBMC co-culture; type: cell-based; details: STM3480 0.05 micromolar, FIG. 1 and 2
# Protocol: This experiment evaluates the effects of human donor Peripheral Blood Mononuclear Cells (PBMCs) to attack and kill fluorescently-labelled tumour cells in a co-culture assay. Briefly, test agents are incubated at different concentrations with SKOV3 human ovarian cancer cells in the presence or absence of human donor PBMCs and tumour growth is monitored continuously by real time imaging of the NucLight Red-labelled SKOV3 cells for several days.
# NucLight Red (Incucyte, Essen Biosciences)-transduced SK-OV-3 (SK-OV-3-NLR) cells were transferred into Ultra-low attachment 96 well plates with spontaneous spheroid formation occurring over 48 hours. Peripheral blood mononuclear cells (PBMC) were isolated from healthy single donor buffy coats by density separation. Prior to co-culture of SK-OV-3-NLR spheroids with PBMC, SK-OV-3-NLR spheroids were treated with 10 ng/ml of interferon gamma (IFNγ). All treatments, including STM3480 and Pembrolizumab, were added at the point of co-culture in a final total volume of 200 μl/per well. Assay plates were transferred into an IncuCyte S3 and images were collected every 2 hours for 7 days. Following experimental completion, an analysis definition was applied to quantify the Total NLR Integrated Intensity present on a per well basis. Changes in spheroid size were quantified by plotting Total NLR Integrated Intensity against time.
# AML = details: cited from earlier work
# [3] = Kasumi1, with increasing concentrations of STM3006
# [4] = Kasumi1, with increasing concentrations of STM3480
compound,measurement,setting,value
Nc1ccn([C@@H]2O[C@H](CO)[C@@H](O)[C@@H]2O)c(=O)n1 [cytarabine],change in IC50 of the standard of care,Kasumi1 AML cell line; [3],No change
same,change in IC50 of the standard of care,Kasumi1 AML cell line; [4],No change
"CC1(C)CCN(Cc2ccc3nc(Cn4cc(-c5cc(Br)cc6[nH]ncc56)nn4)cn3c2)CC1 [STM3006, 6-bromo-4-[1-({6-[(4,4-dimethylpiperidin-1-yl)methyl]imidazo[1,2-a]pyridin-2-yl}methyl)-1H-1,2,3-triazol-4-yl]-1H-indazole]",interaction with venetoclax,MOLM13 AML cell line,synergistic
same,interaction with quizartinib,[1]; FLT3-mutant MOLM-14 AML cell line,additive
same,cell viability with increasing concentrations of METTL3 inhibitor,"[1]; MOLM-14, combination with quizartinib",decreasing viability
same,cell viability with increasing concentrations of METTL3 inhibitor,"Kasumi1 AML cell line; Kasumi1, combination with daunorubicin",decreasing viability
same,interaction with 5′-azacitidine,Kasumi1 AML cell line; Kasumi1 AML cell line,additive
same,interaction with cytarabine,Kasumi1 AML cell line; Kasumi1 AML cell line,additive
same,interaction with daunorubicin,Kasumi1 AML cell line; Kasumi1 AML cell line,additive
same,interaction with venetoclax,Kasumi1 AML cell line; Kasumi1 AML cell line,synergistic
"CC1(C)CCC(CN2CCN(c3ccc(C(=O)NS(=O)(=O)c4ccc(NCC5CCOCC5)c([N+](=O)[O-])c4)c(Oc4cnc5[nH]ccc5c4)c3)CC2)=C(c2ccc(Cl)cc2)C1 [venetoclax, 4-{4-[(4′-chloro-5,5-dimethyl[3,4,5,6-tetrahydro[1,1′-biphenyl]]-2-yl)methyl]piperazin-1-yl}-N-(3-nitro-4-{[(oxan-4-yl)methyl]amino}benzene-1-sulfonyl)-2-[(1H-pyrrolo[2,3-b]pyridin-5-yl)oxy]benzamide]",change in IC50 of the standard of care,"MOLM13 AML cell line; MOLM13, with increasing concentrations of STM3006",decreasing
same,change in IC50 of the standard of care,"MOLM13 AML cell line; MOLM13, with increasing concentrations of STM3480",decreasing
same,change in IC50 of the standard of care,"MOLM13 AML cell line; MOLM13, with increasing concentrations of STM3675",decreasing
same,IC50,"Kasumi1 AML cell line; in the presence of 316.2 nM STM3480, read-out: venetoclax IC50",50.9 nM
same,IC50,"Kasumi1 AML cell line; in the presence of 1000 nM STM3480, read-out: venetoclax IC50",22.2 nM
same,IC50,"Kasumi1 AML cell line; venetoclax alone, read-out: IC50 of venetoclax",238 nM
same,change in IC50 of the standard of care,Kasumi1 AML cell line; [3],decreasing
same,change in IC50 of the standard of care,Kasumi1 AML cell line; [4],decreasing
same,change in IC50 of the standard of care,"Kasumi1 AML cell line; Kasumi1, with increasing concentrations of STM3675",decreasing
"O=C(NCc1ccc2cc(CNCC34CC(F)(C3)C4)[nH]c2c1)c1cc(=O)n2ccccc2n1 [STM3675, N-[(2-{[({3-fluorobicyclo[1.1.1]pentan-1-yl}methyl)amino]methyl}-1H-indol-6-yl)methyl]-4-oxo-4H-pyrido[1,2-a]pyrimidine-2-carboxamide]",interaction with venetoclax,MOLM13 AML cell line,synergistic
same,interaction with venetoclax,Kasumi1 AML cell line; Kasumi1 AML cell line,synergistic
COc1cccc2c1C(=O)c1c(O)c3c(c(O)c1C2=O)C[C@@](O)(C(C)=O)C[C@@H]3O[C@H]1C[C@H](N)[C@H](O)[C@H](C)O1 [daunorubicin],change in IC50 of the standard of care,Kasumi1 AML cell line; [3],No change
same,change in IC50 of the standard of care,Kasumi1 AML cell line; [4],No change
Pembrolizumab: anti-PD1 antibody [reference compound],tumour viability (normalized NucLight Red [NLR] fluorescence) against time,[2],greater decline in viable tumour cells
Nc1ncn([C@@H]2O[C@H](CO)[C@@H](O)[C@H]2O)c(=O)n1 [5′-azacitidine],change in IC50 of the standard of care,Kasumi1 AML cell line; [3],No change
same,change in IC50 of the standard of care,Kasumi1 AML cell line; [4],No change
O=C(NCc1cn2cc(CNCC3CCCCC3)ccc2n1)c1cc(=O)n2ccccc2n1 [STM2457],AML growth,AML,reduction
same,differentiation and apoptosis,AML,increase
